Data: publication PMC12300679, “Taurine-Based Hybrid Drugs as Potential Anticancer Therapeutic Agents: In Vitro, In Vivo Evaluations” (Pharmaceuticals, 2025)

Columns and labels:
[1] = tested on: M-HeLa human cervix carcinoma cells; assay: MTT cytotoxicity assay, M-HeLa; format: cell-based; conditions: for IC50: Homo sapiens, M-HeLa, tested at 1–200 µM, three independent experiments; for IC50 / cytotoxicity against M-HeLa (in words): MTT; for SI (selectivity index) M-HeLa: M-HeLa versus normal WI38 cells
[2] = tested on: WI38 human fibroblast cell line; assay: MTT cytotoxicity assay, normal WI38 cells; format: cell-based; conditions: WI-38, tested at 1–200 µM, three independent experiments
[3] = tested on: HuTu 80 human duodenal adenocarcinoma cells; assay: MTT cytotoxicity assay, HuTu 80; format: cell-based; conditions: for IC50: Homo sapiens, HuTu80, MTT, tested at 1–200 µM, three independent experiments; for SI (selectivity index) HuTu 80: HuTu 80 versus normal WI38 cells
[4] = tested on: HL-60 human promyelocytic leukemia cells; assay: MTT cytotoxicity assay, HL-60; format: cell-based; conditions: for IC50: Homo sapiens, HL-60, MTT, tested at 1–200 µM, three independent experiments
lymphatic leukemia P388 = assay: Antitumor activity, syngeneic lymphatic leukemia P388 in BDF1 mice; format: in vivo, mouse; conditions: for ILS / MST ± SD: i.p. days 1, 5, 9
Protocol: At the next stage, we evaluated them in vivo using syngeneic mouse leukosis P388, which plays an important role in the screening of potential antitumor agents. The antitumor effect of the synthesized compounds was evaluated according to the increase in the average lifespan (ILS, %) of tumor-bearing animals. Due to the fact that physiologically relevant solvent, such as water or physiological solution [49], can be used as a solvent for parenteral administration of substances, we chose only water-soluble compounds 4o–r for the in vivo study.
As model tumors for the determination of antitumor activity of phosphorus-containing derivatives of pyrrolidine, the strain of lymphatic leukemia P388 was chosen. Lymphatic leukemia P388 was transplanted into hybrid mice of the BDF1 line intraperitoneally in accordance with the standard procedure. The inoculum contained 10^6 tumor cells in isotonic solution of NaCl. […] In each experiment, the control group was represented by the cohort of animals with tumors not treated with the compounds. Each group consisted of six mice. The animals were inspected daily over at least 60 days. The effectiveness of therapy was evaluated by the number of surviving animals, as well as by the increase in the average lifespan (ILS%), which was evaluated as the percentage of the mean survival time (MST) of the treated group (t) as compared to the control group (c): […].

[5] = tested on: RPMI 1788 human healthy donor peripheral blood leukocytes; assay: MTT cytotoxicity assay, normal RPMI 1788 cells; format: cell-based; conditions: tested at 1–200 µM, three independent experiments, read-out: IC50 RPMI 1788 (normal cell line)
[6] = dose 12 (table prints no unit; b71 mg/kg)
[7] = dose 17 (table prints no unit; b71 mg/kg)
[8] = dose 26 (table prints no unit; b71 mg/kg)
[9] = dose 37 (table prints no unit; b71 mg/kg)
[10] = dose 55 (table prints no unit; b71 mg/kg)

Cc1c(C2CCCN2S(=O)(=O)CCNCC(=O)O)c(=O)n(-c2ccccc2)n1C (stereo not drawn) [Compound 4m, (2-((2-(1,5-Dimethyl-3-oxo-2-phenyl-2,3-dihydro-1H-pyrazol-4-yl)pyrrolidin-1-yl)sulfonyl)ethyl)glycine]
IC50 [1]: > 100 µM
IC50 [2]: > 100 µM
IC50 [3]: 87 ± 7 µM
SI (selectivity index) HuTu 80 [3]: >1.1

O=P(c1ccccc1)(c1ccccc1)C1CCCN1S(=O)(=O)CCNCCS(=O)(=O)O (stereo not drawn) [Compound 4y, 2-((2-((2-(Diphenylphosphoryl)pyrrolidin-1-yl)sulfonyl)ethyl)amino)ethane-1-sulfonic acid]
IC50 [1]: 62.5 ± 5.3 µM
SI (selectivity index) M-HeLa [1]: 1.9
cytotoxicity against M-HeLa (in words) [1]: moderate cytotoxicity
IC50 [2]: 120 ± 9.3 µM
IC50 [3]: 100 ± 9.2 µM
SI (selectivity index) HuTu 80 [3]: 1.2

O=C1CCN(c2ccccc2)N1C1CCCN1S(=O)(=O)CCN1CCCCC1 (stereo not drawn) [Compound 4b, 1-Phenyl-2-(1-((2-(piperidin-1-yl)ethyl)sulfonyl)pyrrolidin-2-yl)pyrazolidin-3-one]
IC50 [1]: 87 ± 6.8 µM
SI (selectivity index) M-HeLa [1]: 1
IC50 [2]: 88.3 ± 7.1 µM
IC50 [3]: > 100 µM
SI (selectivity index) HuTu 80 [3]: - ((-)—no selectivity)

O=C(O)[C@@H](NCCS(=O)(=O)N1CCCC1P(=O)(c1ccccc1)c1ccccc1)c1c[nH]c2ccccc12 (stereo partly drawn) [Compound 4x, (2S)-2-((2-((2-(Diphenylphosphoryl)pyrrolidin-1-yl)sulfonyl)ethyl)amino)-2-(1H-indol-3-yl)acetic acid]
IC50 [1]: 98.2 ± 8.3 µM
SI (selectivity index) M-HeLa [1]: 1.3
IC50 [2]: 128 ± 10 µM
IC50 [3]: > 100 µM

Nc1ncnc2c1ncn2CCS(=O)(=O)N1CCCC1N1C(=O)CCN1c1ccccc1 (stereo not drawn) [Compound 4c, 2-(1-((2-(6-Amino-9H-purin-9-yl)ethyl)sulfonyl)pyrrolidin-2-yl)-1-phenylpyrazolidin-3-one]
IC50 [1]: > 100 µM
SI (selectivity index) M-HeLa [1]: - ((-)—no selectivity)
IC50 [2]: 100 µM
IC50 [3]: > 100 µM
SI (selectivity index) HuTu 80 [3]: - ((-)—no selectivity)

O=c1[nH]cc(F)c(=O)[nH]1 [5-Fluorouracil, reference compound]
IC50 [1]: 75.6 ± 6.1 µM
SI (selectivity index) M-HeLa [1]: - ((-)—no selectivity)
IC50 [2]: 62 ± 4.8 µM
IC50 [3]: 65.2 ± 5.5 µM
SI (selectivity index) HuTu 80 [3]: 1

O=C(O)CNCCS(=O)(=O)N1CCCC1P(=O)(c1ccccc1)c1ccccc1 (stereo not drawn) [Compound 4v, 2-((2-((2-(Diphenylphosphoryl)pyrrolidin-1-yl)sulfonyl)ethyl)amino)acetic acid]
IC50 [1]: 96.2 ± 8.4 µM
SI (selectivity index) M-HeLa [1]: 2.2
IC50 [2]: 211 ± 17 µM
IC50 [3]: > 100 µM

O=C(O)c1cn(C2CC2)c2cc(N3CCN(CCS(=O)(=O)N4CCCC4N4C(=O)CCN4c4ccccc4)CC3)c(F)cc2c1=O (stereo not drawn) [Compound 4l, 1-Cyclopropyl-6-fluoro-4-oxo-7-(4-(2-((2-(5-oxo-2-phenylpyrazolidin-1-yl)pyrrolidin-1-yl)sulfonyl)ethyl)piperazin-1-yl)-1,4-dihydroquinoline-3-carboxylic acid]
IC50 [1]: 85.4 ± 7.5 µM
SI (selectivity index) M-HeLa [1]: 1.8
cytotoxicity against M-HeLa (in words) [1]: moderate cytotoxicity
IC50 [2]: 154 ± 12 µM
IC50 [3]: > 100 µM

O=C(O)c1cn(C2CC2)c2cc(N3CCN(CCS(=O)(=O)N4CCCC4P(=O)(c4ccccc4)c4ccccc4)CC3)c(F)cc2c1=O (stereo not drawn) [Compound 4z, 1-Cyclopropyl-7-(4-(2-((2-(diphenylphosphoryl)pyrrolidin-1-yl)sulfonyl)ethyl)piperazin-1-yl)-6-fluoro-4-oxo-1,4-dihydroquinoline-3-carboxylic acid]
IC50 [1]: 85.9 ± 8.2 µM
SI (selectivity index) M-HeLa [1]: 1.4
IC50 [2]: 123 ± 9.6 µM
IC50 [3]: 64.6 ± 5.1 µM
SI (selectivity index) HuTu 80 [3]: 1.9

CCN(CC)CCS(=O)(=O)N1CCCC1P(=O)(c1ccccc1)c1ccccc1.Cl (stereo not drawn) [Compound 4o, 2-((2-(Diphenylphosphoryl)pyrrolidin-1-yl)sulfonyl)-N,N-diethylethanaminium chloride]
IC50 [1]: 56.7 ± 4.8 µM
SI (selectivity index) M-HeLa [1]: 1.5
cytotoxicity against M-HeLa (in words) [1]: moderate cytotoxicity
IC50 [2]: 84.3 ± 7.2 µM
IC50 [4]: > 100 µM
ILS (lymphatic leukemia P388; [6]): 7%
MST ± SD (lymphatic leukemia P388; [6]): 10.7 ± 1.0 days
ILS (lymphatic leukemia P388; [7]): −5%
MST ± SD (lymphatic leukemia P388; [7]): 9.5 ± 0.8 days
ILS (lymphatic leukemia P388; [8]): 17%
MST ± SD (lymphatic leukemia P388; [8]): 11.7 ± 1.9 days
ILS (lymphatic leukemia P388; [9]): 7%
MST ± SD (lymphatic leukemia P388; [9]): 10.7 ± 0.9 days
ILS (lymphatic leukemia P388; [10]): 5%
MST ± SD (lymphatic leukemia P388; [10]): 10.5 ± 1.2 days
antileukemia / antitumor effect (in words) (lymphatic leukemia P388; doses under study, i.p.): did not display antitumor effect
IC50 [5]: > 100 µM
IC50 [3]: > 100 µM
SI (selectivity index) HuTu 80 [3]: - ((-)—no selectivity)

COc1cccc2c1C(=O)c1c(O)c3c(c(O)c1C2=O)C[C@@](O)(C(=O)CO)C[C@@H]3O[C@H]1C[C@H](N)[C@H](O)[C@H](C)O1 [Doxorubicin, reference compound]
SI (selectivity index) HL-60 ([4]; HL-60 versus normal RPMI 1788 leukocytes): 1.1
IC50 [4]: 3 ± 4.7 µM
IC50 [5]: 3.3 ± 6.6 µM

Nc1ncnc2c1ncn2CCS(=O)(=O)N1CCCC1P(=O)(c1ccccc1)c1ccccc1 (stereo not drawn) [Compound 4u, (1-((2-(6-Amino-9H-purin-9-yl)ethyl)sulfonyl)pyrrolidin-2-yl)diphenylphosphine oxide]
IC50 [1]: > 100 µM
IC50 [2]: > 100 µM
IC50 [3]: > 100 µM

Cl.O=P(c1ccccc1)(c1ccccc1)C1CCCN1S(=O)(=O)CCN1CCOCC1 (stereo not drawn) [Compound 4s, 4-(2-((2-(Diphenylphosphoryl)pyrrolidin-1-yl)sulfonyl)ethyl)morpholin-4-ium chloride]
IC50 [1]: 78.4 ± 6.6 µM
SI (selectivity index) M-HeLa [1]: 1.2
IC50 [2]: 91.8 ± 8.4 µM
IC50 [4]: > 100 µM
IC50 [5]: > 100 µM
IC50 [3]: > 100 µM
SI (selectivity index) HuTu 80 [3]: - ((-)—no selectivity)
